Patent publication US20250243427A1, “PRECURSORS OF PHENOLIC FRAGRANT COMPOUNDS” (GIVAUDAN SA, priority 2021, published 2025)

How the values were obtained:
[1] = Application in shampoo base, odour on hair swatch; conditions: 0.2% by weight in clear hair shampoo base; dried hair swatch 1 and 3 days; panel of 7 experts
Protocol: A hair shampoo sample (20 g) was prepared by adding 0.2% by weight of 3-ethoxy-4-(hex-3-en-1-yloxy)benzaldehyde (compound of example 3) to unperfumed clear hair shampoo base and mixing on a bottle roller for 24 h at room temperature. An odour-neutral human hair swatch was wetted with warm tap water and lathered delicately with 2 mL of the above hair shampoo sample for 30 sec by hand wearing gloves. The lathered hair swatch was left in a plastic bowl for 2 min, then rinsed under running tap water for 20 sec. After removing excess water by squeezing the hair swatch between two fingers, it was left to dry in open air. The odour of the wet and dried hair swatch (1 and 3 days) was assessed by a panel of 7 experts.

[2] = Odor description on paper blotter; conditions: 1% solution in EtOH on paper blotter, 24 h

CCC=CCCOc1ccc(C=O)cc1OCC [Example 3, 3-ethoxy-4-(hex-3-en-1-yloxy)benzaldehyde]
odour perceived on dry hair swatch [1]: Five out of seven experts perceived a vanilla note | Odor description [2]: powdery sweet (vanilla)
